Measured values: publication PMC9696974 (Pharmaceutics, 2022)

Assays:
ct-DNA [1] = experiment: Thermal denaturation of ct-DNA (∆Tm); format: binding, calf; conditions: r = 0.1, pH 5.0, sodium cacodylate buffer, I = 50 mM
Procedure: (§1) Experiments were conducted in an aqueous buffer solution (pH = 7.0 or pH= 5.0, I = 0.05 M, sodium cacodylate buffer). For the UV-Vis spectra were used Varian Cary 100 Bio spectrometer, for fluorescence spectra we used the Varian Cary Eclipse fluorimeter and for CD spectra we used the JASCO J815 spectropolarimeter, all conducted at 25.0 °C using appropriate quartz cuvettes (path length: 1 cm).
(§2) Polynucleotides were purchased as noted: poly dAdT-poly dAdT, poly dGdC-poly dGdC, poly A-poly U (ds-RNA), (Sigma-Aldrich, Schnelldorf, Germany), calf thymus (ct)-DNA (Sigma-Aldrich, Schnelldorf, Germany) and dissolved in sodium cacodylate buffer, I = 0.05 M, pH = 7.0. The ct-DNA was sonicated and filtered through a 0.45 µm filter to obtain mostly short (ca. 100 base pairs) rod-like B-helical DNA fragments. The concentration of DNA or RNA was determined spectroscopically as the c(nucleobase) using producer-provided molar extinction coefficients.
Thermal denaturation of ds-DNA, ds-RNA and their complexes with studied compounds was performed by monitoring the absorption change at 260 nm as a function of temperature. Tm values are the midpoints of the transition curves determined from the maximum of the first derivative and checked graphically by the tangent method. The ∆Tm values were calculated by subtracting the Tm of the free nucleic acid from the Tm of the complex. Every ∆Tm value here reported was the average of at least two measurements. The error in ∆Tm is ± 0.5 °C.

ct-DNA [2] = experiment: Fluorimetric titration with ct-DNA, Scatchard equation; format: binding, calf; parameters: key: The changes were too small to allow an accurate calculation of the binding constant; conditions: I = 0.05 M
Procedure: as §1, §2
Fortunately, strong emission from the compounds studied allowed fluorimetric titrations to be performed at much lower concentrations of the dyes (c = 5 × 10^−8 M), thus preventing precipitation of non-methylated 1 or 2, and allowing for the collection of numerous data points at excess of DNA/RNA binding sites over c(dye). […] Intriguingly, mixed sequence ct-DNA caused emission quenching of 1M at an excess of dye over ct-DNA (r > 0.1), and such quenching could be attributed to aggregation of 1M along DNA, while at an excess of ct-DNA over dye (r << 0.1), emission increased. The emission of 2M was indiscriminately quenched by all ds-DNA/RNA (Figure 2d).
(§3) Processing of fluorimetric titrations by means of the Scatchard equation [56, 57] yielded binding constants (Table 2). […] Affinities of 1 and 2 toward BSA were the same at both pH values, supporting the conclusion that neutral forms of 1 and 2 were bound.

BSA = BSA (Bos taurus, UniProt P02769); experiment: Fluorimetric titration with BSA, Scatchard equation; format: binding, bovine; conditions: pH 7, sodium cacodylate buffer, I = 0.05 M; read-out: Binding constant logKs BSA (converted)
Chain of BSA (P02769 25-607): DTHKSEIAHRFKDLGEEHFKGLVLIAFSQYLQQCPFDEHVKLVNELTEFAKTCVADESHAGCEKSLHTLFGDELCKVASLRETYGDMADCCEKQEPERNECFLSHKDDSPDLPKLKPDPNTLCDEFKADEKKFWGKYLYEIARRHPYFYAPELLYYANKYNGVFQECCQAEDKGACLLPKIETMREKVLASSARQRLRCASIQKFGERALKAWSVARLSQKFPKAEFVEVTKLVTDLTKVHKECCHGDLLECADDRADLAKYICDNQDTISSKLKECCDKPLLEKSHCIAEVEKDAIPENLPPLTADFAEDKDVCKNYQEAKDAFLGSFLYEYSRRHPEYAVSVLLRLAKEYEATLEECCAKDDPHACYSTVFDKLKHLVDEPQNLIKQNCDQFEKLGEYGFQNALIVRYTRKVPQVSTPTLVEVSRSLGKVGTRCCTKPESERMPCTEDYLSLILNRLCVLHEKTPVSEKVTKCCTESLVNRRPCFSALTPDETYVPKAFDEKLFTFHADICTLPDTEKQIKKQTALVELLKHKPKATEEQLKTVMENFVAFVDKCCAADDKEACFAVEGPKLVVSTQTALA
Procedure: as §1
As the pharmacokinetic properties of small molecules often depend on a binding affinity toward transport proteins (such as serum albumin), we performed fluorimetric titrations with BSA. The emission of both 1M and 2M (Supplementary Information, Figures S15 and S16), was strongly quenched, with compound 2M showing a lower affinity in comparison to ds-DNA/RNA, while the affinity of 1M was similar to that towards ds-DNA/RNA (Table 2).
as §3

[3] = pKa from pH dependence of UV/vis spectrum; format: physicochemical; conditions: water (0.001 M HCl in miliQ water, titrated with NaOH), UV/vis spectra vs pH in water, c = 2.0 × 10^−5 M
Solubility in water = format: physicochemical
A549 cells = experiment: MTT cell viability assay, A549, with or without UV light; format: cell-based, human; conditions: A549
Procedure: Cells. Commercially available from American Type Culture Collection (ATCC), human epithelial lung adenocarcinoma A549 (ATCC® CCL-185™) and human normal lung fibroblast WI-38 (ATCC® CCL-75™) were grown according to supplier’s conditions, namely in Dulbecco Modified Eagle’s Medium (DMEM, Sigma Aldrich, St. Louis, MO, USA) supplemented with 10% of fetal bovine serum (FBS, Sigma Aldrich, USA). Cells were incubated in the cell incubator (Thermo Fischer Scientific, Waltham, MA, USA) at 37 °C and 5% CO2 in a humidified atmosphere.
Cell viability assay. In order to obtain a 10 mM stock solution chemical compounds (2M, 1, and 1M) were sterilely diluted in an appropriate volume of dimethyl sulfoxide solution (DMSO, Gram-Mol, Zagreb, Croatia). Solutions were kept in the dark and stored at 4 °C. The cytotoxic effects of each compound were assayed on A549 and WI-38 cells. […] Briefly, cells were seeded in 96-well tissue culture plates and 24 h later treated with 2M, 1, or 1M in the concentration range of 10–0.1 μM. Cells treated with the same dilutions of DMSO represented the control, while cells treated only with DMEM (10% FBS) represented the negative control. After 72 h, the media was removed, MTT solution was added into each well, and the plate was incubated (37 °C, 5% CO2) for 3 h. The resulting MTT-formazan products were dissolved using DMSO, and their absorbance at 600 nm was measured using a microplate reader.
For determining the effect of UV exposure, cells were seeded on two plates and treated with working solutions of the respective compounds as previously described. Plates were incubated (37 °C, 5% CO2) for 90 min, allowing the compounds to enter the cells. Then, one plate was exposed to UV light (Luzchem reactor, 350 nm, 8 lamps, in total 8 W, dose 50.6 mWm^−2; ~18 cm lamp to cell-plate) for 5 min, 3 days in a row at the same time each day, while the other plate was left in the cell incubator in the dark and served as a control.

What does the source list for c1cc(-c2cc3ccc4cc(-c5ccncc5)cc5ccc(c2)c3c45)ccn1 [compound 2]?
∆Tm ct-DNA (ct-DNA [1]): 1.5 °C; Binding constant logKs ct-DNA (ct-DNA [2]; pH 5, sodium cacodylate buffer): 5.7; Binding constant logKs ct-DNA (ct-DNA [2]; pH 7, sodium cacodylate buffer): b; Kd (BSA): 5.01 µM; pKa [3]: < 4; Solubility in water (Solubility in water): poorly soluble in water; Cytotoxic effect (cell survival, Figure S25) (A549 cells): no cytotoxic effect
